Laboratory results published in patent US20240270762A1, “PENICILLIN-BINDING PROTEIN INHIBITORS” (priority 2021, published 2024).
In brackets after ≈: the same amount, converted by molar mass.

Experiments:
[1] = system: N. gonorrhoeae FA1090; experiment: Liquid broth MIC in Fastidious broth; details: Neisseria gonorrhoeae, FA1090, read-out: Minimum Inhibitory Concentration (MIC), N. gonorrhoeae FA 1090
[2] = system: N. gonorrhoeae WHO G; experiment: Liquid broth MIC in Fastidious broth; details: Neisseria gonorrhoeae, read-out: Minimum Inhibitory Concentration (MIC), N. gonorrhoeae WHO G
[3] = biological target: T1, PBP3 from Pseudomonas aeruginosa (PAO1) (Pseudomonas aeruginosa, UniProt G3XD46); experiment: Bocillin-FL fluorescence polarization competition binding, P. aeruginosa PBP3; details: Binding affinity to P. aeruginosa PBP3; fluorescence polarization competition binding assay using Bocillin-FL; read-out: P. aeruginosa PBP3 Potency
T1 construct: made in house
T1 sequence (G3XD46 whole entry): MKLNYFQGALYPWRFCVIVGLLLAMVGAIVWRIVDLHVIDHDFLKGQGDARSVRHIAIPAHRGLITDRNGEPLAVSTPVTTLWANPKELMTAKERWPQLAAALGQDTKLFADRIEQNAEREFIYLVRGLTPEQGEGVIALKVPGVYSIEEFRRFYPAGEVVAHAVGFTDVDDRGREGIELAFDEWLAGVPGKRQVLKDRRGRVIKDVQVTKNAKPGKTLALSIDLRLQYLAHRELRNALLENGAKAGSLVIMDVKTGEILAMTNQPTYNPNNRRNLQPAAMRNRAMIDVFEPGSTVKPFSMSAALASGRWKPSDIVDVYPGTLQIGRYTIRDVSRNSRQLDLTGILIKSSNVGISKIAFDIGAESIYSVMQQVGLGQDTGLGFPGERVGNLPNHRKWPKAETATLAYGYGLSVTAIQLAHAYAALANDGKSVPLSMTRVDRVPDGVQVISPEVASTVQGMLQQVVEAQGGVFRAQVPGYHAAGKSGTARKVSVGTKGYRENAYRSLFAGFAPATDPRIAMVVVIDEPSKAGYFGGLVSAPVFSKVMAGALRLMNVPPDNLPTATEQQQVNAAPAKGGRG
Method in brief: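 Purified PBPs pre-incubated with inhibitor (E. coli PBP3 1.5 μM, 30 min; P. aeruginosa PBP3 0.75 μM, A. baumannii PBP1a 1 μM and PBP3 0.2 μM, 15 min), then Bocillin-FL 0.1 μM (0.05 μM for PBP1a) added; FP read up to 60 min. EC50 = concentration halving bound Bocillin-FL.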

[4] = system: E. coli AG100; experiment: microbe, parasite or virus in culture; assay type: cell-based; details: Escherichia coli, AG100, read-out: MIC E. coli AG100
[5] = system: N. gonorrhoeae WHO X; experiment: Liquid broth MIC in Fastidious broth; details: Neisseria gonorrhoeae, read-out: Minimum Inhibitory Concentration (MIC), N. gonorrhoeae WHO X
[6] = system: P. aeruginosa ATCC 27853; experiment: microbe, parasite or virus in culture; assay type: cell-based; details: Pseudomonas aeruginosa, ATCC27853, read-out: MIC P. aeruginosa ATCC 27853
[7] = system: P. aeruginosa (ΔmexAB-oprM); experiment: Broth microdilution MIC in CAMHB; assay type: cell-based; details: Pseudomonas aeruginosa; read-out: MIC P. aeruginosa ΔmexAB-oprM
[8] = system: K. pneumoniae 848844; experiment: microbe, parasite or virus in culture; assay type: cell-based; details: Klebsiella pneumoniae, 848844, read-out: MIC K. pneumoniae 848844

## CCN1CCN(C(=O)N[C@H](C(=O)N[C@H]2Cc3ccc(F)c(C(=O)O)c3OB2O)c2ccc(P(=O)(O)O)cc2)C(=O)C1=O (single isomer, unassigned) [Example 9]
[1]
  MIC: < 1 µg/mL
[2]
  MIC: < 1 µg/mL
[3]
  IC50: 10 to 50 µM
[4]
  MIC: > 128 µg/mL
[5]
  MIC: 1 to 2 µg/mL (≈ 1.65 to 3.3 µM)
[6]
  MIC: > 128 µg/mL
[7]
  MIC: > 128 µg/mL
[8]
  MIC: > 128 µg/mL

## Cn1cccc(C(=O)N[C@@H](C(=O)N[C@H]2Cc3cccc(C(=O)O)c3OB2O)c2ccc(P(=O)(O)O)cc2)c1=O (single isomer, unassigned) [Example 182]
[1]
  MIC: < 1 µg/mL
[2]
  MIC: < 1 µg/mL
[3]
  IC50: < 10 µM
[4]
  MIC: > 128 µg/mL
[5]
  MIC: 16 to 32 µg/mL (≈ 28.8 to 57.6 µM)
[6]
  MIC: > 128 µg/mL
[7]
  MIC: 8 to 16 µg/mL (≈ 14.4 to 28.8 µM)
[8]
  MIC: > 128 µg/mL

## N#Cc1cccc(C(=O)N[C@@H](C(=O)N[C@H]2Cc3cccc(C(=O)O)c3OB2O)c2ccc(P(=O)(O)O)cc2)n1 [Example 180, (R)-3-((R)-2-(6-cyanopicolinamido)-2-(4-phosphonophenyl)acetamido)-2-hydroxy-3,4-dihydro-2H-benzo[e][1,2]oxaborinine-8-carboxylic acid]
[1]
  MIC: < 1 µg/mL
[2]
  MIC: < 1 µg/mL
[3]
  IC50: < 10 µM
[4]
  MIC: > 128 µg/mL
[5]
  MIC: 4 to 8 µg/mL (≈ 7.27 to 14.5 µM)
[6]
  MIC: > 128 µg/mL
[7]
  MIC: 32 to 64 µg/mL (≈ 58.2 to 116 µM)
[8]
  MIC: > 128 µg/mL

## CC(=O)NC(C(=O)N[C@H]1Cc2cccc(C(=O)O)c2OB1O)c1ccc(P(=O)(O)O)cc1 (stereo partly drawn) [Example 26, (3R)-3-(2-acetamido-2-(4-phosphonophenyl)acetamido)-2-hydroxy-3,4-dihydro-2H-benzo[e][1,2]oxaborinine-8-carboxylic acid]
[1]
  MIC: 16 to 32 µg/mL (≈ 34.6 to 69.2 µM)
[2]
  MIC: 16 to 32 µg/mL (≈ 34.6 to 69.2 µM)
[3]
  IC50: 50 to 250 µM
[4]
  MIC: > 128 µg/mL
[5]
  MIC: 16 to 32 µg/mL (≈ 34.6 to 69.2 µM)
[6]
  MIC: > 128 µg/mL
[7]
  MIC: > 128 µg/mL
[8]
  MIC: > 128 µg/mL

## CCN1CCN(C(=O)N[C@@H](C(=O)N[C@H]2Cc3cccc(C(=O)O)c3OB2O)c2ccc(P(=O)(O)O)c(F)c2)C(=O)C1=O (single isomer, unassigned) [Example 7]
[1]
  MIC: < 1 µg/mL
[2]
  MIC: < 1 µg/mL
[4]
  MIC: 8 to 16 µg/mL (≈ 13.2 to 26.4 µM)
[5]
  MIC: < 1 µg/mL
[6]
  MIC: 32 to 64 µg/mL (≈ 52.8 to 106 µM)
[7]
  MIC: 8 to 16 µg/mL (≈ 13.2 to 26.4 µM)
[8]
  MIC: > 128 µg/mL

## O=C(O)c1cccc2c1OB(O)[C@@H](NC(=O)[C@H](NC(=O)c1c[nH]ccc1=O)c1ccc(P(=O)(O)O)cc1)C2 [Example 175, (R)-2-hydroxy-3-((R)-2-(4-oxo-1,4-dihydropyridine-3-carboxamido)-2-(4-phosphonophenyl)acetamido)-3,4-dihydro-2H-benzo[e][1,2]oxaborinine-8-carboxylic acid]
[1]
  MIC: < 1 µg/mL
[2]
  MIC: 1 to 2 µg/mL (≈ 1.85 to 3.7 µM)
[3]
  IC50: < 10 µM
[4]
  MIC: 32 to 64 µg/mL (≈ 59.1 to 118 µM)
[5]
  MIC: 16 to 32 µg/mL (≈ 29.6 to 59.1 µM)
[6]
  MIC: 32 to 64 µg/mL (≈ 59.1 to 118 µM)
[7]
  MIC: 8 to 16 µg/mL (≈ 14.8 to 29.6 µM)
[8]
  MIC: 32 to 64 µg/mL (≈ 59.1 to 118 µM)

## CS(=O)(=O)N1CCC[C@@H]1C(=O)N[C@@H](C(=O)N[C@H]1Cc2cccc(C(=O)O)c2OB1O)c1ccc(P(=O)(O)O)cc1 [Example 35, (R)-2-hydroxy-3-((R)-2-((R)-1-(methylsulfonyl)pyrrolidine-2-carboxamido)-2-(4-phosphonophenyl)acetamido)-3,4-dihydro-2H-benzo[e][1,2]oxaborinine-8-carboxylic acid]
[1]
  MIC: < 1 µg/mL
[2]
  MIC: 1 to 2 µg/mL (≈ 1.68 to 3.36 µM)
[3]
  IC50: < 10 µM
[4]
  MIC: > 128 µg/mL
[5]
  MIC: 16 to 32 µg/mL (≈ 26.9 to 53.8 µM)
[6]
  MIC: > 128 µg/mL
[7]
  MIC: > 128 µg/mL
[8]
  MIC: > 128 µg/mL

## CC(C)C(=O)NC(C(=O)N[C@H]1Cc2cccc(C(=O)O)c2OB1O)c1ccc(P(=O)(O)O)cc1 (stereo partly drawn) [Example 28, (3R)-2-hydroxy-3-(2-isobutyramido-2-(4-phosphonophenyl)acetamido)-3,4-dihydro-2H-benzo[e][1,2]oxaborinine-8-carboxylic acid]
[1]
  MIC: 4 to 8 µg/mL (≈ 8.16 to 16.3 µM)
[2]
  MIC: 4 to 8 µg/mL (≈ 8.16 to 16.3 µM)
[3]
  IC50: 10 to 50 µM
[4]
  MIC: > 128 µg/mL
[5]
  MIC: 16 to 32 µg/mL (≈ 32.6 to 65.3 µM)
[6]
  MIC: > 128 µg/mL
[7]
  MIC: > 128 µg/mL
[8]
  MIC: > 128 µg/mL

## NC(C(=O)N[C@H]1Cc2ccc(F)c(C(=O)O)c2OB1O)c1ccc(P(=O)(O)O)cc1 (stereo partly drawn) [Example 14, (3R)-3-(2-amino-2-(4-phosphonophenyl)acetamido)-7-fluoro-2-hydroxy-3,4-dihydro-2H-benzo[e][1,2]oxaborinine-8-carboxylic acid]
[1]
  MIC: > 64 µg/mL
[2]
  MIC: > 64 µg/mL
[3]
  IC50: > 250 µM
[4]
  MIC: > 128 µg/mL
[5]
  MIC: > 64 µg/mL
[6]
  MIC: > 128 µg/mL
[7]
  MIC: > 128 µg/mL
[8]
  MIC: > 128 µg/mL
